Data on 1 molecule can be found in BindingDB's records for patent US20240025892 (The General Hospital, 2024).

Structures are written as SMILES.

For this experiment, the target named is Serine/threonine-protein kinase SIK2 (Homo sapiens, UniProt Q9H0K1). Briefly: In Vitro SIK2 Kinase Assay. As for the experimental part: Assays were performed in base reaction buffer (20 mM Hepes (pH 7.5), 10 mM MgCl2, 1 mM EGTA, 0.02% Brij35, 0.02 mg/mL BSA, 0.1 mM Na3VO4, 2 mM DTT, 1% DMSO). Compounds were dissolved in 100% DMSO in a 10 mM stock. Serial dilution was conducted by Integra Viaflo Assist in DMSO. […] The substrate used was pAMARA at a concentration of 0.2 mg/mL. Kinase assays were supplemented with 2 mM Mn2+, and 1 μM ATP was added. Assays were performed for 20 minutes at room temperature, after which time 33P-ATP (10 μCi/μL) was added followed by incubation for another 120 minutes at room temperature. Thereafter, radioactivity incorporated into the […] peptide substrate was detected by filter-binding method. Kinase activity data were expressed as the percent remaining kinase activity in test samples compared to DMSO reactions. IC50 values and curve fits were obtained using Prism (GraphPad Software).
Sequence of Serine/threonine-protein kinase SIK2 (Q9H0K1 whole entry): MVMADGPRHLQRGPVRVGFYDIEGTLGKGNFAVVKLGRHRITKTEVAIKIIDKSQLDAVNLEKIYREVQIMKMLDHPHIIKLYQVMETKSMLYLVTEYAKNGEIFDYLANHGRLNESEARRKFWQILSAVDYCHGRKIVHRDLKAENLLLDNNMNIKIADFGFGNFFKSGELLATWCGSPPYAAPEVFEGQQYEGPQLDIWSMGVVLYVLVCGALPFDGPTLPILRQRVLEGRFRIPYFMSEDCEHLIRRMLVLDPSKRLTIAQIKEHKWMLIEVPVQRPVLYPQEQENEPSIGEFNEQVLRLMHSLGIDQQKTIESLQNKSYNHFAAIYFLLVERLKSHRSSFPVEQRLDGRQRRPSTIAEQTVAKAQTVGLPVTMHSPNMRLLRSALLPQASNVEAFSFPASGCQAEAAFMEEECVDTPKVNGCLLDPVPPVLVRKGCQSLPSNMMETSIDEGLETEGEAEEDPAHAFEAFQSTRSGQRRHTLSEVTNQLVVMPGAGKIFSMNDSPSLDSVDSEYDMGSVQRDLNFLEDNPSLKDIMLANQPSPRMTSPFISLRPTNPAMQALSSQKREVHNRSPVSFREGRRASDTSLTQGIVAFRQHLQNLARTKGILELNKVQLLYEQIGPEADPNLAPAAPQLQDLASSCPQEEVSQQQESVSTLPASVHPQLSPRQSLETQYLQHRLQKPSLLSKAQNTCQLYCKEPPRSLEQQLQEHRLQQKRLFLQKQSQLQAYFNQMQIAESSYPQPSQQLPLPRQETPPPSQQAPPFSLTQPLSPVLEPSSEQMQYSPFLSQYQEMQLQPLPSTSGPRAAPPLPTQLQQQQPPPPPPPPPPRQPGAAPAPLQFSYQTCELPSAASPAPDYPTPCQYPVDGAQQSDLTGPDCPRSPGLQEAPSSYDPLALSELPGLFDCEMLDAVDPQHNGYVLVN

In turn, `N#Cc1ccc(-n2cnc3cc(C(=O)NCc4cccnc4)ccc32)cc1` [US20240025892, Example 32] showed an IC50 of 0.148 µM. In other words, the sub-micromolar range.
